Assay results reported in patent US6906094B2, “1,2,4-tribsubstituted benzenes as inhibitors of 15-lipoxygenase” (Warner-Lambert Company, priority 2000, dated 2005).

Legend:
[1] = target: T1, human 15-LO (Homo sapiens, UniProt P16050); test: Human Lysate 15-LO Assay (HUM15LO); type: biochemical; conditions: recombinant human 15-LO, 174 μM linoleic acid, 15 minutes at 4° C., 13-HODE quantitated
T1 construct: made in house; host or cells: Sf9 insect cells (baculovirus, Bac-to-Bac)
T1 sequence (P16050 1-662): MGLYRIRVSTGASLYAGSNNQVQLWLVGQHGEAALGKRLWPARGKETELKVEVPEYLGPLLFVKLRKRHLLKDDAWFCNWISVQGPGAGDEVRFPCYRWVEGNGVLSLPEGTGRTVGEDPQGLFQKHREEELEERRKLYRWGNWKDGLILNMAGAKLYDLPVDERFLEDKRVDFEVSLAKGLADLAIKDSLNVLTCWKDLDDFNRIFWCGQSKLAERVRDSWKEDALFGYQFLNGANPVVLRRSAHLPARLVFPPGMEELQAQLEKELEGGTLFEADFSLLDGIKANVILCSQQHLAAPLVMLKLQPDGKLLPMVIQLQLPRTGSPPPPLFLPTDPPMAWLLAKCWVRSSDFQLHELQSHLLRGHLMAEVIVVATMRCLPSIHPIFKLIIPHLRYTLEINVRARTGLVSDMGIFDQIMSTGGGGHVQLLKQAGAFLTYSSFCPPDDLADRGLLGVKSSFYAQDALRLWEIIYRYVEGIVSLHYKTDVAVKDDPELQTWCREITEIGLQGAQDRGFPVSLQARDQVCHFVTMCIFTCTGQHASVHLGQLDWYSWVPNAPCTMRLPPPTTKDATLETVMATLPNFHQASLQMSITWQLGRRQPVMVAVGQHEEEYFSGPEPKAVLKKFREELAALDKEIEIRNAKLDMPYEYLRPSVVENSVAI
Description: In the HUM15LO assay, a test compound of the present invention was incubated with 15-LO enzyme in the presence of the linoleic acid substrate. For example, a known amount of a test compound of the present invention, 100 μL of human 15-LO, and 174 μM linoleic acid in PBS containing 0.2% sodium cholate were incubated for 15 minutes at 4° C. The reaction was stopped with 100 μL of mobile phase and 10 μL of triethyl phosphite. […] 13-HODE was quantitated by comparing peak areas of individual samples with those from a standard curve generated using authentic 13-HODE. The test reaction is compared to a control reaction, which is identical to the test reaction except no test compound of the present invention is present Percent inhibition is calculated as the amount of 13-HODE produced by the test reaction divided by the amount of 13-HODE produced by the control reaction, expressed as a percent.
Human 15-LO was generated in a recombinant 15-lipoxygenase bacculovirus expression system, using Gibco/BRL/Life Technologies' Bac-to-Bac expression reagents; T4 DNA ligase, Kanamycin, Gentamicin, tetracycline, penicillin, streptomycin, Bluo-gal, IPTG, DH10Bac competent cells, SOC, LB medium, Sf-900 II SFM media, Sf9 insect cells, Cell Fectin, and EcoRI, BamHI and KpnI restriction enzymes.

[2] = target: T2, rabbit reticulocyte 15-LO (Oryctolagus cuniculus, UniProt P12530); test: Rabbit Reticulocyte 15-LO Assay (H15LO); type: biochemical; conditions: 2 U rabbit reticulocyte 15-LO, 174 μM linoleic acid, 15 minutes at 4° C., 13-HODE quantitated
T2 construct: 15-LO is obtained from phenylhydrazine-treated rabbits and purified according to the method of Rapoport; from tissue; host or cells: reticulocytes of phenylhydrazine-treated rabbits
T2 sequence (P12530 1-663): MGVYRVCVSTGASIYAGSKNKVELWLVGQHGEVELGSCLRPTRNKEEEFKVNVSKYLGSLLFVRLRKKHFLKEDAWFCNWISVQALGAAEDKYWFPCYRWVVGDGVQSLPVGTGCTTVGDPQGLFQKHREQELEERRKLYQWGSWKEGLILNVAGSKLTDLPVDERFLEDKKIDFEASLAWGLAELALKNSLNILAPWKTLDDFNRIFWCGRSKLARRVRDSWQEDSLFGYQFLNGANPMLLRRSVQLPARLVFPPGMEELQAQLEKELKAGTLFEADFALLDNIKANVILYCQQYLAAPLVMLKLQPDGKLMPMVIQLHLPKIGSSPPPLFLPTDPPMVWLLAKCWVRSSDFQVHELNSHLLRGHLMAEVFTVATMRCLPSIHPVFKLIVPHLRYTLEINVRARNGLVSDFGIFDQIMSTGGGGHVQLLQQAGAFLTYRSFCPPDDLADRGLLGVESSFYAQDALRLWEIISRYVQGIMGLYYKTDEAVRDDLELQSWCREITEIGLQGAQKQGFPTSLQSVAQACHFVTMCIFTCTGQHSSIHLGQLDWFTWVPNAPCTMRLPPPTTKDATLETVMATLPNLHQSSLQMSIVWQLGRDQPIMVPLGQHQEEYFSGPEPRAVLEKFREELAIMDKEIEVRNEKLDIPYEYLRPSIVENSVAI
Description: In the H15LO assay, a test compound was incubated with 15-LO enzyme in the presence of the linoleic acid substrate. For example, 2 units (U) of rabbit reticulocyte 15-LO and 174 μM linoleic acid were incubated with a known amount of a test compound of the present invention for 15 minutes at 4° C. The total reaction volume was 100 μL in phosphate buffer saline (PBS) containing 0.2% sodium cholate. The reaction was stopped with 100 μL of mobile phase and […] of triethyl phosphite. […] 13-HODE was quantitated by comparing peak areas of individual samples with those from a standard curve generated using authentic 13-HODE.
15-LO is obtained from phenylhydrazine-treated rabbits and purified according to the method of Rapoport (Rapoport et al., European Journal of Biochemistry, 1979;96:545-561).

Compound	melting point [°C]	IC50 [1] [nM]	IC50 [2] [nM]
COc1ccc(-c2cc3cc(F)c(F)cc3[nH]2)cc1NS(=O)(=O)NC(=O)OCCOC(C)C (hydrate or solvate) [Example 34, Carbamic Acid, [[[5-(5,6-difluoro-IH-indol-2-yl)-2-methoxyphenyl]amino]-sulfonyl]-2(1-methylethoxy)ethyl Ester]	158 to 163	–	–
COc1ccc(C(=O)Nc2ccc(F)c(F)c2)cc1NS(=O)(=O)NC(=O)OCCCc1ccncc1 (hydrate or solvate) [Example 39, Carbamic Acid, [[[5-[[(3,4-difluorophenyl)amino]carbonyl]-2-methoxyphenyl]amino]sulfonyl]-, 3-(4-pyridinyl)propyl ester]	160 to 164	–	–
COc1ccc(-c2cc3cc(F)c(F)cc3[nH]2)cc1NS(=O)(=O)NC(=O)OCCc1ccccc1 (hydrate or solvate) [Example 40, Carbamic Acid, [[[5-(5,6-difluoro-IH-indol-2-yl)-2-methoxyphenyl]amino]-sulfonyl]-2-phenylethyl ester]	180 to 182	–	–
COc1ccc(C(=O)Nc2ccc(F)c(F)c2)cc1NS(=O)(=O)NC(=O)OCCc1ccccc1 (hydrate or solvate) [Example 41]	173 to 177	–	–
CCCCOC(=O)NS(=O)(=O)Nc1cc(-c2cc3cc(F)c(F)cc3[nH]2)ccc1OC [Example 21, Carbamic Acid, [[[5-(5,6-difluoro-IH-indol-2-yl)-2-methoxyphenyl]amino]-sulfonyl]-, Butyl Ester]	–	14	9
COc1ccc(-c2cc3cc(F)c(F)cc3[nH]2)cc1NS(=O)(=O)NC(=O)OCC(C)C [Example 22, Carbamic Acid, [[[5-(5,6-difluoro-IH-indol-2-yl)-2-methoxyphenyl]amino]-sulfonyl]-, 2-methylpropyl ester]	–	25	25
COc1ccc(-c2cc3cc(F)c(F)cc3[nH]2)cc1NS(=O)(=O)NC(=O)Nc1cc(Cl)cc(Cl)c1 [Example 24]	–	33	11
CCOC(=O)NS(=O)(=O)Nc1cc(-c2cc3cc(F)c(F)cc3[nH]2)ccc1OC [Example 25, Carbamic Acid, [[[5-(5,6-difluoro-1H-indol-2-yl)-2-methoxyphenyl]amino]-sulfonyl]-, ethyl ester]	–	34	15
COc1ccc(-c2cc3cc(F)c(F)cc3[nH]2)cc1NS(=O)(=O)NC(=O)Nc1ccc(Cl)cc1 [Example 27, Urea, N-(4-chlor phenyl)-N′-[[[5-(5,6-difluoro-IH-indol-2-yl)-2-methoxyphenyl]amino]sulfonyl]]	–	44	23
COc1ccc(-c2cc3cc(F)c(F)cc3[nH]2)cc1NS(=O)(=O)NC(=O)Nc1ccc(C)cc1 [Example 28, Urea, N-[[[5-(5,6-difluoro-IH-indol-2-yl)-2-methoxyphenyl]amino]sulfonyl]-N′-(4-methylphenyl)]	–	18	39
COC(=O)NS(=O)(=O)Nc1cc(-c2cc3cc(F)c(F)cc3[nH]2)ccc1OC [Example 29, Carbamic Acid, [[[5-(5,6-difluoro-IH-indol-2-yl)-2-methoxyphenyl]amino]-sulfonyl]-methyl ester]	–	85	47
COc1ccc(-c2cc3cc(F)c(F)cc3[nH]2)cc1NS(=O)(=O)NC(=O)OCCOC(C)C [Example 34, Carbamic Acid, [[[5-(5,6-difluoro-IH-indol-2-yl)-2-methoxyphenyl]amino]-sulfonyl]-2(1-methylethoxy)ethyl Ester]	–	30	26
CNS(=O)(=O)Nc1cc(-c2cc3cc(F)c(F)cc3[nH]2)ccc1OC [Example 37, Sulfamide, N-[5-(5,6-diflouo-IH-indo-2-yl)-2-methoxyphenyl]-N′-methyl]	–	7	5
CNS(=O)(=O)Nc1cc(C(=O)Nc2ccc(F)c(F)c2)ccc1OC [Example 38, Benzamide, N-(3,4-difluorophenyl)-4-methoxy-3-[[(methylamino)-sulfonyl]amino]]	–	13	13
COc1ccc(-c2cc3cc(F)c(F)cc3[nH]2)cc1NS(=O)(=O)NC(=O)OCCc1ccccc1 [Example 40, Carbamic Acid, [[[5-(5,6-difluoro-IH-indol-2-yl)-2-methoxyphenyl]amino]-sulfonyl]-2-phenylethyl ester]	–	15	7
COc1ccc(C(=O)Nc2ccc(F)c(F)c2)cc1NS(=O)(=O)NC(=O)OCCc1ccccc1 [Example 41]	–	69	13
COC(=O)COC(=O)NS(=O)(=O)Nc1cc(-c2cc3cc(F)c(F)cc3[nH]2)ccc1OC [Example 43, Acetic Acid, [[[[[[5-(5,6-difluoro-1H-indol-2-yl)-2-methoxyphenyl]amino]-sulfonyl]amino]carbonyl]oxy]-, Methyl ester]	–	30	17
COc1ccc(-c2cc3cc(F)c(F)cc3[nH]2)cc1NS(=O)(=O)NC(=O)OCCCO [Example 45, Carbamic acid, [[[5-(5,6-difluoro-IH-indol-2-yl)-2-methoxyphenyl]amino]-sulfonyl]-3-hydroxypropyl ester]	–	133	80
COc1ccc(C(=O)Nc2ccc(F)c(F)c2)cc1NS(=O)(=O)NC(=O)Nc1ccc(C(C)(C)C)cc1 [Example 59, Benzamide, N-(3,4-difluorophenyl)-3-[[[[[[4-(1,1-dimethylethyl)phenyl]-amino]carbonyl]amino]sulfonyl]amino]-4-methoxy]	–	24	13
COc1ccc(C(=O)Nc2ccc(F)c(F)c2)cc1NS(=O)(=O)NC(=O)Nc1ccc(C(=O)O)cc1 [Example 65, Benzoic Acid, 4-[[[[[[5-[[(3,4-difluorophenyl)amino]carbonyl]-2-methoxyphenyl]amino]sulfonyl]amino]carbonyl]amino]]	–	273	30
COc1ccc(NC(=O)NS(=O)(=O)Nc2cc(C(=O)Nc3ccc(F)c(F)c3)ccc2OC)cc1 [Example 66, Benzamide, N-(3,4-difluorophenyl)-4-methoxy-3-[[[[[(4-methoxyphenyl)-amino]carbonyl]amino]sulfonyl]amino]]	–	225	51
